Source: US20260102457A1, “ANTICOAGULANT-PEPTIDE NANOGRANULES FOR THROMBOSIS-ACTUATED ANTICOAGULATION” (The Penn State Research Foundation, priority 2022, published 2026)
Where no end group is shown, it is not given here.

Tests used:
activated platelets = assay: Platelet localization and binding (confocal microscopy, flow cytometry); assay type: cell-based, bovine; settings: 15 minutes incubation
Experimental: Bovine platelets were acquired from bovine PRP by centrifugation (800 rcf, 15 minutes), labelled with DiI (5 μg/mL), washed, and resuspended in PBS. At the time of treatment, platelets were further centrifuged (800 rcf, 15 minutes) to replace PBS supernatant with treatment solutions. Treatments of AMCA/FITC HMG, FITC-MAD1, or AMCA-heparin were prepared in PBS at equivalent concentrations, incubated with platelet samples for 15 minutes and then transferred to 4-well chambered slide (500 μL) before imaging using an Olympus FluoView 1000 confocal microscope (Tokyo, Japan).
MAD1-platelet binding was analyzed via flow cytometry by resuspending platelets in PBS containing 1 mg/mL FITC-MAD1. Blank PBS was used as an untreated control. After a 15-minute incubation, treated platelets were centrifuged (800 rcf, 15 minutes) and resuspended in PBS before analysis using a Guava Flow Cytometer (Millipore Sigma; Burlington, MA). Data was analyzed by FlowJo software.

[1] = test system: bovine platelet rich plasma (PRP); settings: equivalent heparin concentration of 2 μg/mL, FIG. 3b
Experimental: Here, bovine PRP was acquired from the top clear layer after centrifuging citrated bovine whole blood at 600 rcf for 30 minutes (4° C.) with minimum acceleration/break ramps. […] Clot formation was initiated by combining 450 μL bovine PRP, 50 μL HMG treatment solution, and 50 μL 0.1M CaCl2) in a 24-well plate. DI water was included as a negative control. Samples were mixed on an oscillating rocker plate and clotting time determined as the time required for observable aggregate formation upon recalcification.

[2] = In vivo heparin serum/plasma concentration over time; parameters: species or system C57BL/6J mice; settings: for time of highest heparin serum concentration: first sampling timepoint; for time to complete clearance from serum: post administration; for heparin serum half-life (t1/2): single dose 10 IU heparin
Experimental: (§1) Murine studies were performed under IACUC protocol 202102036. HMG particles were prepared using rhodamine-heparin doped 20 vol % into unlabeled heparin before electrospray synthesis. Dialyzed HMG particles were concentrated by Centri Vap DNA Concentrator to achieve 0.5 mg/mL equivalent heparin. Sterile 10×PBS was diluted ten-fold into samples before injection of a 200 μL volume into C57BL/6J mice. Two groups (n=4) received free heparin given via tail vein injection or injected subcutaneously in the neck scruff. A third group (n=4) received HMG sample as a subcutaneous depot in the neck scruff. All mice received a final heparin dose of 10 IU. At each time point, mice were sacrificed, and blood samples collected into citrate tubes via cardiac puncture. Coagulation time was determined on whole blood samples via INTEM analysis on a ROTEM delta coagulation analyzer (Werfen; Bedford, MA). Clotting times were chosen to evaluate the efficacy of each treatment's ability to inhibit thrombin-linked platelet activation and initial fibrin polymerization/recruitment. INTEM coagulation analysis was selected based on its established sensitivity for the presence of heparin. For a typical experiment, serum is isolated via centrifugation (1000 rcf, 10 minutes) and fluorescence measurements taken (λex=560 nm, λem=590 nm). Kidney, liver, and spleen tissues were also collected and homogenized before centrifugation at 10,000 rcf for 20 minutes to remove bulk fibrous structures. 100 μL of the remaining supernatant was evaluated for heparin presence via fluorescence measurements (λex=560 nm, λem=590 nm) using a BioTek Cytation 3 Plate Reader.

whole blood coagulation = assay: In vivo anticoagulation: blood clotting time (INTEM, ROTEM); parameters: species or system C57BL/6J mice
Experimental: as §1

[3] = Tissue biodistribution of heparin (liver, kidney, spleen fluorescence); assay type: in vivo, C57BL/6J mice; settings: kidneys
Experimental: as §1, with “INTEM coagulation analysis was selected based on its established sensitivity for the presence of heparin.” left out, “Kidney, liver, and spleen tissues were also collected and homogenized before centrifugation at 10,000 rcf for 20 minutes to remove bulk fibrous structures.” left out

[4] = clinical background; cited from earlier work

Substance | binding to activated platelets (activated platelets) | clotting time of blood treated with peptide alone [1] | time of highest heparin serum concentration ([2]; intravenous) | time to complete clearance from serum ([2]; intravenous) | heparin serum half-life (t1/2) ([2]; intravenous) | time of transient spike in heparin serum concentration after dosing ([2]; subcutaneous) | time of highest heparin serum concentration ([2]; subcutaneous) | time to complete clearance from serum ([2]; subcutaneous) | heparin serum half-life (t1/2) ([2]; subcutaneous) | blood clotting time (whole blood coagulation; intravenous, 0.5 hour time point) | time to return to basal clotting activity (whole blood coagulation; intravenous, post administration, basal 3.5 minutes) | change in clotting behavior (whole blood coagulation; subcutaneous, 0.5-24 hours) | tissue biodistribution / clearance route of heparin ([3]; intravenous) | tissue biodistribution / clearance route of heparin ([3]; subcutaneous) | plasma half-life (t1/2) [4]
KRWHWWRRHWVVW-NH2 [MAD1] | high avidity | significant increase in clotting time | – | – | – | – | – | – | – | – | – | – | – | – | –
heparin | – | – | 30 min | ~6 h | 1.3 h | 4 to 6 h | 30 min | ~6 h | 1.4 h | 35.5 min | approximately 2 hours | negligible changes in clotting behavior for all time points except 6 hours | initially excreted through the renal system, with additional hepatic clearance observed at ˜6 hours | early liver uptake that later shifted to renal clearance | ~1 h
